#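 Compound exposure: 48 hours, 5 concentrations, 96-well plates. GI50: concentration for 50% inhibition of growth.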 Calls of active or inactive are those of the source. No stated cut-off is given here; in the data, active = GI50 up to about 1.1 µM and inactive = higher. Where a SMILES comes first, the peptide text is derived from it. [ ]: non-standard residue; d: D form. Phe(F5) = N[CH](Cc1c(F)c(F)c(F)c(F)c1F)C(=O)O
# What was measured:
# Assay in all cases: NCI tumour cell line growth inhibition, 48 h
# U-251 = tested on: U-251
# SW-620 = tested on: SW-620
# TK-10 = tested on: TK-10
# A549 = tested on: A549
# NCI-H226 = tested on: NCI-H226
# CCRF-CEM = tested on: CCRF-CEM
# SNB-19 = tested on: SNB-19
# T47D = tested on: T47D
# Malme-3M = tested on: Malme-3M
# UO-31 = tested on: UO-31
# HCT-116 = tested on: HCT-116
# A498 = tested on: A498
# OVCAR-5 = tested on: OVCAR-5
# OVCAR-8 = tested on: OVCAR-8
# MDA-MB-231 = tested on: MDA-MB-231
# SNB-75 = tested on: SNB-75
# DU-145 = tested on: DU-145
# HCT-15 = tested on: HCT-15
# LOX IMVI = tested on: LOX IMVI
# EKVX = tested on: EKVX
Structure (SMILES),GI50 (U-251),GI50 (SW-620),GI50 (TK-10),GI50 (A549),GI50 (NCI-H226),GI50 (CCRF-CEM),GI50 (SNB-19),GI50 (T47D),GI50 (Malme-3M),GI50 (UO-31),GI50 (HCT-116),GI50 (A498),GI50 (OVCAR-5),GI50 (OVCAR-8),GI50 (MDA-MB-231),GI50 (SNB-75),GI50 (DU-145),GI50 (HCT-15) [µM],GI50 (LOX IMVI),GI50 (EKVX)
O=C(NNC(=S)Nc1ccc(Br)cc1)c1cc(-c2ccccc2)nc2ccccc12,16.2 µM (inactive),21.2 µM (inactive),14.9 µM (inactive),21 µM (inactive),24.3 µM (inactive),22.1 µM (inactive),27.2 µM (inactive),17.1 µM (inactive),17.3 µM (inactive),17.1 µM (inactive),16.7 µM (inactive),13.8 µM (inactive),24.9 µM (inactive),23.1 µM (inactive),18.6 µM (inactive),29.2 µM (inactive),19.9 µM (inactive),24,–,–
CNC(=O)CNC(=O)C(Cc1ccc(NC(=O)CCCCC(C)=O)cc1)NC(=O)C(CCC(=O)OCc1ccccc1)NC(=O)OC(C)(C)C (stereo not drawn),> 100 µM (inactive),> 100 µM (inactive),> 100 µM (inactive),> 100 µM (inactive),> 100 µM (inactive),–,> 100 µM (inactive),> 100 µM (inactive),> 100 µM (inactive),> 100 µM (inactive),> 100 µM (inactive),48.3 µM (inactive),> 100 µM (inactive),> 100 µM (inactive),> 100 µM (inactive),> 100 µM (inactive),> 100 µM (inactive),> 100,> 100 µM (inactive),> 100 µM (inactive)
COc1ccc(C(=O)Sc2c(-c3ccccc3)c(=O)n(-c3ccccc3)c(=S)n2-c2ccccc2)cc1,47 µM (inactive),> 100 µM (inactive),> 100 µM (inactive),64.1 µM (inactive),5.73 µM (inactive),22.3 µM (inactive),43.5 µM (inactive),> 100 µM (inactive),48.5 µM (inactive),–,29.7 µM (inactive),15.4 µM (inactive),> 100 µM (inactive),21.3 µM (inactive),> 100 µM (inactive),> 100 µM (inactive),> 100 µM (inactive),> 100,74.5 µM (inactive),> 100 µM (inactive)
Cc1ccc(C2=Nc3cc(C)c(Cl)cc3S(=O)(=O)NN2)cc1,> 100 µM (inactive),> 100 µM (inactive),49.5 µM (inactive),57.8 µM (inactive),> 100 µM (inactive),38.5 µM (inactive),44.6 µM (inactive),54 µM (inactive),> 100 µM (inactive),> 100 µM (inactive),> 100 µM (inactive),> 100 µM (inactive),–,> 100 µM (inactive),23.3 µM (inactive),> 100 µM (inactive),> 100 µM (inactive),> 100,> 100 µM (inactive),> 100 µM (inactive)
COc1cc2oc(-c3ccc(O)cc3)c(OC3OC(C)C(O)C(O)C3O)c(=O)c2c(O)c1OC (stereo not drawn),89.5 µM (inactive),92.7 µM (inactive),> 100 µM (inactive),79.6 µM (inactive),> 100 µM (inactive),35.6 µM (inactive),> 100 µM (inactive),> 100 µM (inactive),96.2 µM (inactive),–,80.4 µM (inactive),> 100 µM (inactive),> 100 µM (inactive),91 µM (inactive),> 100 µM (inactive),> 100 µM (inactive),99.8 µM (inactive),> 100,57.7 µM (inactive),> 100 µM (inactive)
O=c1cc(NNc2cccc(Cl)c2)[nH]c(=O)[nH]1,> 100 µM (inactive),18.1 µM (inactive),20.8 µM (inactive),> 100 µM (inactive),> 100 µM (inactive),21.6 µM (inactive),46.3 µM (inactive),> 100 µM (inactive),16.3 µM (inactive),18.8 µM (inactive),17.9 µM (inactive),42.2 µM (inactive),77.4 µM (inactive),–,17.9 µM (inactive),88.5 µM (inactive),72.3 µM (inactive),17.1,15.4 µM (inactive),–
COc1ccc(C2(CC(C)C)CCNC2)cc1OC (stereo not drawn),> 100 µM (inactive),> 100 µM (inactive),> 100 µM (inactive),> 100 µM (inactive),> 100 µM (inactive),> 100 µM (inactive),> 100 µM (inactive),31.5 µM (inactive),> 100 µM (inactive),50.9 µM (inactive),> 100 µM (inactive),> 100 µM (inactive),> 100 µM (inactive),> 100 µM (inactive),> 100 µM (inactive),8.18 µM (inactive),> 100 µM (inactive),> 100,> 100 µM (inactive),86.1 µM (inactive)
COC(=O)c1c2c(cc3c1CC1(C3)Cc3ccc4c(c3C1=O)CCC4)CCC2 (stereo not drawn),3.33 µM (inactive),4.07 µM (inactive),8.49 µM (inactive),4.88 µM (inactive),5.09 µM (inactive),3.63 µM (inactive),4.12 µM (inactive),5.13 µM (inactive),3.39 µM (inactive),3.05 µM (inactive),3.01 µM (inactive),3.42 µM (inactive),> 21.1 µM (inactive),4.61 µM (inactive),2.01 µM (inactive),4.33 µM (inactive),4.65 µM (inactive),3.58,3.9 µM (inactive),8.17 µM (inactive)
O=C1c2ccccc2-c2ccc(/N=N/c3c(O)ccc4ccccc34)cc21,> 100 µM (inactive),> 100 µM (inactive),> 100 µM (inactive),> 100 µM (inactive),> 100 µM (inactive),15.4 µM (inactive),> 100 µM (inactive),> 100 µM (inactive),19.7 µM (inactive),> 100 µM (inactive),> 100 µM (inactive),> 100 µM (inactive),> 100 µM (inactive),> 100 µM (inactive),> 100 µM (inactive),> 100 µM (inactive),> 100 µM (inactive),> 100,> 100 µM (inactive),> 100 µM (inactive)
CC(=O)OCC(=O)O[C@@H]1[C@H]2[C@@H](OC(=O)c3ccccc3)[C@@H](C)C[C@]2(O)[C@H](OC(C)=O)[C@@]2(C)C[C@]1(OC(C)=O)C[C@H]1C(=O)C(C)(C)[C@@H](OC(C)=O)[C@@H]12,> 25 µM (inactive),21.2 µM (inactive),> 25 µM (inactive),3.66 µM (inactive),> 25 µM (inactive),–,> 25 µM (inactive),> 25 µM (inactive),> 25 µM (inactive),0.912 µM (active),> 25 µM (inactive),13.4 µM (inactive),10 µM (inactive),> 25 µM (inactive),> 25 µM (inactive),7.71 µM (inactive),> 25 µM (inactive),> 25,> 25 µM (inactive),24.8 µM (inactive)
CC1=C[C@@H](C)C[C@]2(C)CC[C@H](O2)[C@]23CC[C@](C(=O)O)(C[C@H](O2)[C@@H]2O[C@@](C)(CC2=O)[C@@H](O)[C@H]2CC[C@@]4(CCC[C@@H](O4)[C@H](C)C(=O)O[C@H]4C[C@H]([C@]5(O)OCC[C@H](C)[C@@H]5O)O[C@H]4C=C1)O2)O3,> 10 µM (inactive),> 10 µM (inactive),> 7.62 µM (inactive),> 10 µM (inactive),> 5.71 µM (inactive),> 10 µM (inactive),> 10 µM (inactive),> 10 µM (inactive),> 10 µM (inactive),> 10 µM (inactive),> 10 µM (inactive),> 5.75 µM (inactive),> 10 µM (inactive),> 10 µM (inactive),> 10 µM (inactive),3.5 µM (inactive),> 10 µM (inactive),> 10,> 6.92 µM (inactive),> 10 µM (inactive)
Cc1ccc2c(O)cc(-c3cccc4ccccc34)nc2n1,0.0166 µM (active),0.0203 µM (active),–,0.032 µM (active),0.0398 µM (active),0.0251 µM (active),0.0445 µM (active),67.8 µM (inactive),< 0.01 µM (active),0.189 µM (active),< 0.0151 µM (active),0.0101 µM (active),0.0375 µM (active),0.032 µM (active),0.0522 µM (active),0.0116 µM (active),0.0392 µM (active),0.0206,0.0229 µM (active),0.0338 µM (active)
COC(=O)C(CC(C)C)NC(=O)C(Cc1c[nH]cn1)NC(=O)CNC(=O)C(NC(=O)C(C)NC(=O)C(Cc1c[nH]c2ccccc12)NC(=O)C(CCC(=O)O)NC(=O)C(N)Cc1c(F)c(F)c(F)c(F)c1F)C(C)C (stereo not drawn) (H-[Phe(F5)]EWAVGHL-OMe; configuration not given here),> 12.5 µM (inactive),> 12.5 µM (inactive),–,> 12.5 µM (inactive),> 12.5 µM (inactive),> 12.5 µM (inactive),> 100 µM (inactive),> 12.5 µM (inactive),> 12.5 µM (inactive),> 12.5 µM (inactive),> 12.5 µM (inactive),> 12.5 µM (inactive),> 12.5 µM (inactive),> 12.5 µM (inactive),> 12.5 µM (inactive),> 100 µM (inactive),> 12.5 µM (inactive),> 12.5,> 12.5 µM (inactive),> 12.5 µM (inactive)
O=C(/C=C/c1ccc(O)cc1)NCCc1ccc(O)cc1 [N-P-COUMAROYL TYRAMINE],> 12.5 µM (inactive),> 12.5 µM (inactive),3.72 µM (inactive),4.06 µM (inactive),> 12.5 µM (inactive),2.99 µM (inactive),> 12.5 µM (inactive),> 12.5 µM (inactive),> 12.5 µM (inactive),11.1 µM (inactive),> 12.5 µM (inactive),> 12.5 µM (inactive),> 12.5 µM (inactive),> 12.5 µM (inactive),> 12.5 µM (inactive),–,12 µM (inactive),> 12.5,> 12.5 µM (inactive),3.05 µM (inactive)

# Source: ChEMBL document CHEMBL1201862, “PubChem BioAssay data set” (2004)
